Measured values: ChEMBL document CHEMBL5325413, “Optimization of BAX trigger site activator BTSA1 with improved antitumor potency and in vitro ADMET properties” (Eur J Med Chem, 2023)
The source made the active and inactive calls. The rule behind the calls is not given here.

Tests used:
[1] = test system: A549; assay: Antiproliferative activity against human A549 cells assessed as cell growth inhibition incubated for 72 hrs by MTT assay; assay type: functional
[2] = test system: A549; assay: Induction of apoptosis in human A549 cells assessed as early apoptotic cells at 10 uM incubated for 48 hrs by Annexin V-FITC/PI staining based flow cytometry analysis (reference value: 0.708%); assay type: functional
[3] = test system: A549; assay: Induction of apoptosis in human A549 cells assessed as dead cells at 10 uM incubated for 48 hrs by Annexin V-FITC/PI staining based flow cytometry analysis (reference value: 0.739%); assay type: functional
[4] = test system: A549; assay: Antiproliferative activity against human A549 cells assessed as reduction in cell viability at 1 to 5 uM by MTT assay; assay type: functional, cell-based; details: dose 1-5 µM, time 24-72 hrs, TDE = time-dependent effect
[5] = test system: NCI-H1581; assay: Antiproliferative activity against human NCI-H1581 cells expressing BAX assessed as cell growth inhibition incubated for 72 hrs by MTT assay; assay type: functional
[6] = test system: MV4-11; assay: Antiproliferative activity against human MV4-11 cells expressing BAX assessed as cell growth inhibition incubated for 72 hrs by trypan blue cell counting analysis; assay type: functional
[7] = test system: THP-1; assay: Antiproliferative activity against human THP-1 cells expressing BAX assessed as cell growth inhibition incubated for 72 hrs by trypan blue cell counting analysis; assay type: functional
[8] = test system: A549; assay: Inhibition of colony formation in human A549 cells at 3 uM incubated for 2 weeks by crystal violet staining based analysis relative to control; assay type: functional; details: A549, 336 h
[9] = test system: A549; assay: Induction of apoptosis in human A549 cells assessed as live cells at 5 uM incubated for 48 hrs by Annexin V-FITC/PI staining based flow cytometry analysis (reference value: 95.9 %); assay type: functional
[10] = test system: A549; assay: Induction of apoptosis in human A549 cells assessed as dead cells at 5 uM incubated for 48 hrs by Annexin V-FITC/PI staining based flow cytometry analysis (reference value: 0.535%); assay type: functional
[11] = test system: A549; assay: Induction of apoptosis in human A549 cells assessed as live cells at 10 uM incubated for 48 hrs by Annexin V-FITC/PI staining based flow cytometry analysis (reference value: 95.9 %); assay type: functional
[12] = test system: A549; assay: Induction of apoptosis in human A549 cells assessed as early apoptotic cells at 10 uM incubated for 48 hrs by Annexin V-FITC/PI staining based flow cytometry analysis (reference value: 1.09 %); assay type: functional
[13] = test system: A549; assay: Induction of apoptosis in human A549 cells assessed as late apoptotic cells at 10 uM incubated for 48 hrs by Annexin V-FITC/PI staining based flow cytometry analysis (reference value: 2.52%); assay type: functional
[14] = test system: A549; assay: Induction of apoptosis in human A549 cells assessed as total apoptotic cells at 5 uM incubated for 48 hrs by Annexin V-FITC/PI staining based flow cytometry analysis (reference value: 4.26%); assay type: functional
[15] = test system: A549; assay: Induction of apoptosis in human A549 cells assessed as formation of apoptotic bodies at 2.5 to 10 uM incubated for 48 hrs by Hoechst 33342 staining based fluorescence microscopic analysis; assay type: functional, cell-based; details: dose 2.5-10 µM
[16] = test system: A549; assay: Induction of apoptosis in human A549 cells assessed as nuclear fragmentation at 2.5 to 10 uM incubated for 48 hrs by Hoechst 33342 staining based fluorescence microscopic analysis; assay type: functional, cell-based; details: dose 2.5-10 µM
[17] = test system: A549; assay: Induction of cell cycle arrest in human A549 cells assessed as accumulation of cells at G0/G1 phase at 2.5 uM incubated for 48 hrs by RNase/PI staining based flow cytometry analysis (reference value: 54.82%); assay type: functional
[18] = test system: A549; assay: Induction of cell cycle arrest in human A549 cells assessed as accumulation of cells at G0/G1 phase at 5 uM incubated for 48 hrs by RNase/PI staining based flow cytometry analysis (reference value: 54.82%); assay type: functional
[19] = test system: A549; assay: Induction of cell cycle arrest in human A549 cells assessed as accumulation of cells at S phase at 2.5 uM incubated for 48 hrs by RNase/PI staining based flow cytometry analysis (reference value: 26.01%); assay type: functional
[20] = test system: A549; assay: Induction of cell cycle arrest in human A549 cells assessed as accumulation of cells at S phase at 5 uM incubated for 48 hrs by RNase/PI staining based flow cytometry analysis (reference value: 26.01%); assay type: functional
[21] = test system: A549; assay: Induction of cell cycle arrest in human A549 cells assessed as accumulation of cells at G2/M phase at 2.5 uM incubated for 48 hrs by RNase/PI staining based flow cytometry analysis (reference value: 18.97%); assay type: functional
[22] = test system: A549; assay: Induction of cell cycle arrest in human A549 cells assessed as accumulation of cells at G2/M phase at 5 uM incubated for 48 hrs by RNase/PI staining based flow cytometry analysis (reference value: 18.97%); assay type: functional
[23] = target: Apoptosis regulator BAX (Homo sapiens) (UniProt Q07812); assay: Activation of BAX in human A549 cells assessed as protein translocation by measuring increase in BAX protein level in mitochondrial fraction incubated for 24 hrs by Western blot analysis; assay type: mitochondria; details: filed as activator, dose 5-40 µM
Chain of Apoptosis regulator BAX (Homo sapiens) (Q07812 whole entry): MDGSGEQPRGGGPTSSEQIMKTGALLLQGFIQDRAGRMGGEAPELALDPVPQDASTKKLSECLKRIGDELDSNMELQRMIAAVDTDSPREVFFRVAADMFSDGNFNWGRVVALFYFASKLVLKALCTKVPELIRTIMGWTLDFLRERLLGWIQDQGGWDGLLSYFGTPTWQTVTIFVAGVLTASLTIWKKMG

[24] = test system: A549; assay: Induction of apoptosis in human A549 cells assessed as increase in cleaved PARP level incubated for 48 hrs by Western blot analysis; assay type: functional, cell-based; details: dose 5-40 µM
[25] = Metabolic stability in human liver microsomes assessed as parent compound remaining at 100 uM incubated for 60 mins in absence of NADPH by LC-MS/MS analysis
[26] = Metabolic stability in mouse liver microsomes assessed as parent compound remaining at 100 uM incubated for 60 mins in presence of NADPH by LC-MS/MS analysis
[27] = Metabolic stability in mouse liver microsomes assessed as parent compound remaining at 100 uM incubated for 60 mins in absence of NADPH by LC-MS/MS analysis
[28] = Stability in rat plasma assessed as compound remaining measured immediately; assay type: ADME, cell-free; details: read-out: Stability
[29] = Stability in rat plasma assessed as compound remaining measured after 10 mins; assay type: ADME, cell-free; details: read-out: Stability
[30] = Stability in rat plasma assessed as compound remaining measured after 30 mins; assay type: ADME, cell-free; details: read-out: Stability
[31] = Drug recovery in human liver microsomes at 100 uM incubated for 60 mins in absence of NADPH by LC-MS/MS analysis; assay type: ADME, Microsome; details: read-out: Drug recovery
[32] = target: Cytochrome P450 2D6 (Homo sapiens, UniProt P10635); assay: Inhibition of CYP2D6 in human liver microsomes using dextromethorphan as substrate prewarmed for 10 mins followed by NADPH addition and measured after 10 mins by LC-MS/MS analysis
Chain of Cytochrome P450 2D6 (P10635 whole entry): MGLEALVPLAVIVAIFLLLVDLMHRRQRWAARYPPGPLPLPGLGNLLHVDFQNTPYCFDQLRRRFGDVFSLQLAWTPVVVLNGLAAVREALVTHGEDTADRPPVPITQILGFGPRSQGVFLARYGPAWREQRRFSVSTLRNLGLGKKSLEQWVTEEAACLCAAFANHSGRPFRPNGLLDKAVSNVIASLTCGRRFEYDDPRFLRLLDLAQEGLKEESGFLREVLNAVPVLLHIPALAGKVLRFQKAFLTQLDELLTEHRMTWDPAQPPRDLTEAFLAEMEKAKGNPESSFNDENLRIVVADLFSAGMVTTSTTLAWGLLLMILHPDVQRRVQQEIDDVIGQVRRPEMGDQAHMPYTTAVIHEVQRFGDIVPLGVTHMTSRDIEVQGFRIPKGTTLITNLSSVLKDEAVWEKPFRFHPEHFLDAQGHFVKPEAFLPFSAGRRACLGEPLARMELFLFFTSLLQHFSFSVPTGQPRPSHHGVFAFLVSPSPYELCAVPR

[33] = target: Cytochrome P450 3A4 (Homo sapiens, UniProt P08684); assay: Inhibition of CYP3A4 in human liver microsomes using midazolam as substrate prewarmed for 10 mins followed by NADPH addition and measured after 10 mins by LC-MS/MS analysis
Chain of Cytochrome P450 3A4 (P08684 whole entry): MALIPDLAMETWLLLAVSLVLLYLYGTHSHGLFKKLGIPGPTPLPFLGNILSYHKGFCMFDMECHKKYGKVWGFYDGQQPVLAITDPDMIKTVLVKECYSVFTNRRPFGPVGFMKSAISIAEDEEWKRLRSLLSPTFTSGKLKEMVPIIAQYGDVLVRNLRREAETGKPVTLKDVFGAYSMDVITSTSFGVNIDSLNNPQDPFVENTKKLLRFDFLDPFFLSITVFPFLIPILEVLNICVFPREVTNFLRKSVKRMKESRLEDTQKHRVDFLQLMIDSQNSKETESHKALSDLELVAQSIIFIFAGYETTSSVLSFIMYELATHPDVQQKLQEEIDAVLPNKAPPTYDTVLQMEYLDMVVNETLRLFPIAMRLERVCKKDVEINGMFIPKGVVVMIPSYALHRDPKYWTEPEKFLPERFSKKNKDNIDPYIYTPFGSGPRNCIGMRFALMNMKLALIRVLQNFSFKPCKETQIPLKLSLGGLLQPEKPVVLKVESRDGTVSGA

[34] = human, microsomes, 1 h, 100 µM
[35] = mouse, 1 h, 100 µM
[36] = in vitro; details: human, liver microsomes
[37] = in vitro; details: mouse, liver microsomes

CN(C)C1CCN(C(=O)c2ccc(N3N=C(c4ccccc4)/C(=N/Nc4ccccc4)C3=O)cc2)CC1
GI50 [1]: 2.15 µM | Activity [2]: 71.2% | Activity [3]: 0.535% | Activity [4]: Tde | GI50 [5]: 2.15 µM | GI50 [6]: 2.84 µM | GI50 [7]: 2.18 µM | inhibition at 3 µM [8]: > 50% | Activity [9]: 84.2% | Activity [10]: 0.284% | Activity [11]: 26.1% | Activity [12]: 55% | Activity [13]: 18.4% | Activity [14]: 15.43% | Activity [15]: Active | Activity [16]: Active | Activity [17]: 58.46% | Activity [18]: 63.73% | Activity [19]: 25.51% | Activity [20]: 27.84% | Activity [21]: 16.48% | Activity [22]: 8.3% | Activity [23]: Dose-Dependent Effect | Activity [24]: Dose-Dependent Effect | remaining at 1 h, 100 µM [25]: 102% | remaining at 1 h, 100 µM [26]: 74.1% | remaining at 1 h, 100 µM [27]: 96% | remaining at 0 min [28]: 100% | remaining at 10 min [29]: 99.4% | remaining at 0.5 h [30]: 99.1% | remaining at 1 h, 100 µM [31]: 102% | IC50 [32]: > 50 µM | IC50 [33]: > 50 µM | CLint [34]: < 9.6 µL/min/mg | CLH [35]: < 2.28 mL/h/kg | half-life at 1 h, 100 µM [36]: > 2.42 h | half-life at 1 h, 100 µM [37]: > 2.42 h
